Structures are written as SMILES. Read-outs that look alike come from different tables or passages of the source.

The values that follow come from US20250320213A1, “Nitrogen-Containing Heterocyclic Compounds” (Pfizer Inc., priority 2024, published 2025).

Assay [1] deals with T1, STAT6 (Homo sapiens, UniProt P42226).
T1 construct: stably transfected HaCaT keratinocyte cell line, which expresses NanoLuc luciferase reporter gene under the transcriptional control of the STAT6 responsive promoter; endogenous in cells; host or cells: HaCaT keratinocyte reporter cell line (stably transfected with a NanoLuc reporter)
T1 sequence (P42226 1-847): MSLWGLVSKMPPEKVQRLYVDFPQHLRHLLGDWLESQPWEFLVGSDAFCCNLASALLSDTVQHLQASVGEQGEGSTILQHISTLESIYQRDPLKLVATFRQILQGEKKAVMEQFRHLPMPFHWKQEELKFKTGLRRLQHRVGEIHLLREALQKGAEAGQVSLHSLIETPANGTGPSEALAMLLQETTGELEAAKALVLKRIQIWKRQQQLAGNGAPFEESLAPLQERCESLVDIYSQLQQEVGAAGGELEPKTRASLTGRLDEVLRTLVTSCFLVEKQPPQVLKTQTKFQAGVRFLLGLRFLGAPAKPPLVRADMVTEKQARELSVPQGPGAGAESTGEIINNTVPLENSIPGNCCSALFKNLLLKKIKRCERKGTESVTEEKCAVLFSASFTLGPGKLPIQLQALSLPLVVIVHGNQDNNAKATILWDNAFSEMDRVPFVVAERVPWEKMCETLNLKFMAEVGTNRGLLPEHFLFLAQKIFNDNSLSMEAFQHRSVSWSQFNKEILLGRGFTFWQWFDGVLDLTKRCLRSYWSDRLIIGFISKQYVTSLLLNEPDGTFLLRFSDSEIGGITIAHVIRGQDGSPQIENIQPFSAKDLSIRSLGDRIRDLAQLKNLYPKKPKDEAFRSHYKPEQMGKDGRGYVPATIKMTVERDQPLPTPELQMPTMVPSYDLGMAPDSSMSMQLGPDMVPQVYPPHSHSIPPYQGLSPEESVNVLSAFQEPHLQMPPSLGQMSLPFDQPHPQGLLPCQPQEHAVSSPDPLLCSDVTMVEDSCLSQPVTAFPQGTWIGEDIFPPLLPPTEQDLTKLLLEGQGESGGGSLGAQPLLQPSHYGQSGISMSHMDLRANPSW
Kind of assay: STAT6 Reporter Luciferase Assay (IL-13 stimulated HaCaT keratinocyte NanoLuc reporter cells). It counts as cell-based. Conditions: read-out: Reporter EC50. The method, boiled down:
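IL-13 (0.12 nM, 4 h) stimulated STAT6 reporter activity in HaCaT cells after a 2 h compound pre-incubation; NanoLuc signal was measured.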

The test system of assay [2] is CCL17 secretion in peripheral human whole blood. Description: Human Whole Blood (HWB) CCL17 TR-FRET Assay (IL-13 stimulated CCL17 secretion). It is filed as cell-based. The method, boiled down:
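TR-FRET sandwich immunoassay (665/615 nm ratio) read CCL17 in serum from heparinized whole blood after 16 h RT detection. Blood was exposed to compound for 2 h at 37 °C, then to 10 ng/mL IL-13 (final) for 48 h. IC50 from 11-point, 3-fold titrations in duplicate.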
In general terms: Time-resolved FRET reads energy transfer from a long-lived donor to a nearby acceptor.

The mark [3] stands for this setting: STAT6 NanoLuc luciferase reporter, IL-13 stimulated HaCaT keratinocyte cells.

What is called EC50 is the concentration needed to bring the measured effect to its halfway point. The term IC50 denotes the point on the concentration scale where inhibition reaches its midpoint. With `CC1CN(c2ccc(C(=O)N(C)C)cn2)Cc2c(C(=O)NCc3ccc(NC(=O)N(C)C)cc3)nn(C)c21` (single isomer, unassigned) [Example 8, rel-(R or S)-5-(5-(Dimethylcarbamoyl)pyridin-2-yl)-N-(4-(3,3-dimethylureido)benzyl)-1,7-dimethyl-4,5,6,7-tetrahydro-1H-pyrazolo[4,3-c]pyridine-3-carboxamide], the concentration for a half-maximal effect (EC50) in assay [1] (setting [3]) turned out to be 3 nM. The molecule also gave a concentration for half-maximal inhibition (IC50) in assay [2] (inhibition of CCL17 secretion in human whole blood, 10 ng/mL IL13, 48 hours) of 14 nM.

For `CC(C1CC1)n1nc(C(=O)NCc2ccc(NC(=O)N(C)C)cc2)c2c1CCN(c1ccc(C(=O)N(C)C)cn1)C2` (racemic) [Example 62, rac-(R)-1-(1-cyclopropylethyl)-5-(5-(dimethylcarbamoyl)pyridin-2-yl)-N-(4-(3,3-dimethylureido)benzyl)-4,5,6,7-tetrahydro-1H-pyrazolo[4,3-c]pyridine-3-carboxamide], the EC50 in assay [1] (setting [3]) is 9 nM. Besides, half-maximal inhibition in assay [2] (Homo sapiens, 48 h, inhibition of CCL17 secretion in human whole blood, 10 ng/mL IL13, 48 hours) (IC50) required 66 nM.

Turning to `CC1CN(c2ccc(C(=O)N(C)C)cn2)Cc2c(C(=O)NCc3ccc(NC(=O)N(C)C)cc3)nn(C3COC3)c21` (racemic) [Example 321, rac-(R)-5-(5-(dimethylcarbamoyl)pyridin-2-yl)-N-(4-(3,3-dimethylureido)benzyl)-7-methyl-1-(oxetan-3-yl)-4,5,6,7-tetrahydro-1H-pyrazolo[4,3-c]pyridine-3-carboxamide], the 50% effective concentration (EC50) in assay [1] (IL-13 stimulated HaCaT STAT6 NanoLuc reporter cells) was 3 nM. In assay [2] (Homo sapiens, 48 h, human whole blood, IL-13 stimulated), this molecule gave a 50% inhibitory concentration (IC50) of 22 nM.
